By IC50 is commonly meant the concentration that gives 50% inhibition. In general, inhibition refers to the relative decrease from the control value, in per cent.

This is an account of results in ChEMBL document CHEMBL5634155, “Design and synthesis of pyrazole derivatives against neutrophilic inflammation” (Eur J Med Chem, 2023).

Test [1] relates to Neutrophil. Kind of test: Inhibition of fMLF/CB-induced human Neutrophil activation assessed as reduction in elastase release using MeO-Suc-Ala-Ala-Pro-Val-pnitroanilide as substrate incubated for 5 mins. Format: functional, cell-based.
Test [2] deals with Neutrophil. Kind of test: Inhibition of fMLF/CB-induced human Neutrophil activation assessed as reduction in elastase release at 10 uM using MeO-Suc-Ala-Ala-Pro-Val-pnitroanilide as substrate incubated for 5 mins relative to control. Format: functional.
For test [3], the system named is Neutrophil. Kind of test: Inhibition of fMLF/CB-induced human Neutrophil activation assessed as reduction in superoxide anion generation preincubated with compound for 2 mins prior to CB induction for 3 mins followed by fMLF addition by spectrophotometric analysis. Format: functional, cell-based.
For test [4], the system named is Neutrophil. Kind of test: Inhibition of fMLF/CB-induced human Neutrophil activation assessed as reduction in superoxide anion generation at 10 uM preincubated with compound for 2 mins prior to CB induction for 3 mins followed by fMLF addition by spectrophotometric analysis relative to control. Format: functional. As to conditions: 5 min.

Molecules are shown by their SMILES.

For `O=C(O)c1ccc(-c2nn(Cc3ccccc3)c3ccccc23)o1`, the IC50 in test [1] is greater than 10 µM; in test [3], greater than 10000 nM. Moreover, the inhibition at 10 µM in test [2] amounted to 16.8%; in test [4] it was 43.4%.
For the molecule `O=Cc1ccc(-c2nn(C(=O)c3ccccc3)c3ccccc23)o1`, the values for the IC50 in test [1] and in test [3] were greater than 10 µM and greater than 10000 nM, respectively. Further, the values for the inhibition at 10 µM in test [2] and in test [4] were 18.1% and 10.1%, respectively.
For `c1ccc(Cn2cc(-c3ccccc3)c(-c3cccs3)n2)cc1` the same measures were greater than 10 µM, 145000 nM, 23.5% and 65.7%.
For `Fc1cccc(Cn2nc(-c3ccccc3)cc2-c2ccccc2)c1`, the concentration for half-maximal inhibition (IC50) was greater than 10 µM in test [1] and greater than 10000 nM in test [3]. The inhibition at 10 µM in test [2] stood at 17.6%; in test [4] it was 48.3%.
On to `O=Cc1ccc(-c2nn(Cc3ccccc3Br)c3ccccc23)o1`, for which the 50% inhibitory concentration (IC50) in test [1] was 2.27 µM; in test [3], 190 nM. Further, the figures for the inhibition at 10 µM in test [2] and in test [4] were 106% and 67.4%, respectively.
With `c1ccc(Cn2nc(-c3cccs3)cc2-c2ccccc2)cc1`, the half-inhibitory concentration (IC50) is greater than 10 µM in test [1] and 74.5 nM in test [3]. The inhibition at 10 µM worked out at 39.1% in test [2] and 70% in test [4].
Consider `COc1ccc(-c2nn(Cc3ccccc3)cc2-c2ccccc2)cc1OC`, for which the IC50 in test [1] is greater than 10 µM; in test [3], 218000 nM. Also, the inhibition at 10 µM in test [2] is 7.02%; in test [4], 68.2%.
Consider `CCCCCCCn1nc(-c2ccc(C(=O)O)o2)c2ccccc21`, for which the half-inhibitory concentration (IC50) in test [1] turned out to be 1.92 µM; in test [3] it was 2030 nM. Further, the figures for the inhibition at 10 µM in test [2] and in test [4] were 112% and 98.7%, respectively.
Turning to `CCCCCCCn1cc(-c2ccccc2)c(-c2ccccc2)n1`, the IC50 is greater than 10 µM in test [1] and greater than 10000 nM in test [3]. The results for the inhibition at 10 µM in test [2] and in test [4] were 16.9% and 0.72%, respectively.
With `O=Cc1ccc(-c2cc(-c3ccccc3)n(Cc3ccccc3)n2)o1`, the figures for the concentration for half-maximal inhibition (IC50) in test [1] and in test [3] were 1.84 µM and 1550 nM, respectively. For the same molecule, the inhibition at 10 µM in test [2] is 96.1%; in test [4], 80.8%.
Turning to `COc1cccc(Cn2nc(-c3cccs3)cc2-c2ccccc2)c1`, the IC50 in test [1] is greater than 10 µM; in test [3], 1760 nM. In addition, the inhibition at 10 µM turned out to be 32.8% in test [2] and 63.3% in test [4].
As for `c1ccc(Cn2nc(-c3ccco3)c3ccccc32)cc1`, the IC50 was greater than 10 µM in test [1] and 2320 nM in test [3]. Besides, the inhibition at 10 µM in test [2] turned out to be 20.4%; in test [4] it was 71.8%.
Turning to `CCC(=O)c1ccc(-c2nn(Cc3ccccc3F)c3ccccc23)o1`, the results for the IC50 in test [1] and in test [3] were 2.54 µM and 180 nM, respectively. Further, the inhibition at 10 µM worked out at 93.4% in test [2] and 106% in test [4].
On the same counts, the results for `CCCCCCCn1nc(-c2ccco2)c2ccccc21` are greater than 10 µM, greater than 10000 nM, 44.2% and 8.38%.
Turning to `c1ccc(-c2cc(-c3ccccc3)n(CC3CCCCC3)n2)cc1`, the IC50 is greater than 10 µM in test [1] and greater than 10000 nM in test [3]. Further, the values for the inhibition at 10 µM in test [2] and in test [4] were 8.16% and 40.8%, respectively.
As to `COc1ccc(-c2nn(Cc3cccc(F)c3)cc2-c2ccccc2)cc1OC`, the IC50 in test [1] was greater than 10 µM; in test [3] it was greater than 10000 nM. For the same molecule, the inhibition at 10 µM amounted to 16% in test [2] and 33.7% in test [4].
In the case of `Fc1cccc(Cn2nc(-c3ccco3)cc2-c2ccccc2)c1`, the IC50 was determined as 3.57 µM in test [1] and 45.9 nM in test [3]. The inhibition at 10 µM was 76.6% in test [2] and 94.6% in test [4].
On the same counts, the results for `Fc1cccc(Cn2cc(-c3ccccc3)c(-c3cccs3)n2)c1` are greater than 10 µM, 1790 nM, 33.6% and 63.7%.
`c1ccc(-c2cn(CC3CCCCC3)nc2-c2ccccc2)cc1`: the IC50 was greater than 10 µM in test [1] and greater than 10000 nM in test [3]. For the same molecule, the inhibition at 10 µM in test [2] amounted to 8.93%; in test [4], 6.73%.
For the molecule `COc1ccccc1C(=O)n1nc(-c2ccc(C=O)o2)c2ccccc21`, the IC50 in test [1] was greater than 10 µM; in test [3], greater than 10000 nM. Moreover, the results for the inhibition at 10 µM in test [2] and in test [4] were 31.8% and 10.4%, respectively.
On to `OC(c1ccc(-c2nn(Cc3ccccc3F)c3ccccc23)o1)C(F)(F)F` (stereo not given), for which the 50% inhibitory concentration (IC50) is greater than 10 µM in test [1] and greater than 10000 nM in test [3]. The inhibition at 10 µM is 10.3% in test [2] and 35.7% in test [4].
On to `O=[N+]([O-])c1cccc2c(-c3ccc(CO)o3)nn(Cc3ccccc3)c12`, for which the 50% inhibitory concentration (IC50) in test [1] was 7.58 µM; in test [3], 1810 nM. For the same molecule, the inhibition at 10 µM amounted to 68.3% in test [2] and 82.6% in test [4].
Turning to `CCCCCCCn1cc(-c2ccccc2)c(-c2ccco2)n1`, the IC50 in test [1] worked out at 1.08 µM. The inhibition at 10 µM in test [2] was found to be 110%; in test [4] it was 102%.
Take `CCCCCCCn1nc(-c2cccs2)cc1-c1ccccc1`: the IC50 was greater than 10 µM in test [1] and greater than 10000 nM in test [3]. Also, the inhibition at 10 µM is 21.1% in test [2] and 16.6% in test [4].
On to `c1ccc(-c2cc(-c3cccs3)nn2CC2CCCCC2)cc1`, for which the IC50 is greater than 10 µM in test [1] and greater than 10000 nM in test [3]. The inhibition at 10 µM turned out to be 15.2% in test [2] and 39% in test [4].
For `CCCCCCCn1nc(-c2ccccc2)cc1-c1ccccc1` the same measures were greater than 10 µM, greater than 10000 nM, 1.6% and 4.58%.
On the same counts, the results for `O=Cc1ccc(-c2nn(Cc3ccccc3F)c3ccccc23)o1` are 5.27 µM, 710 nM, 84.7% and 78.2%.
For `c1ccc(-c2cn(CC3CCCCC3)nc2-c2ccco2)cc1` the same measures were 1.19 µM, 833000 nM, 109% and 104%.
Consider `Fc1cccc(Cn2cc(-c3ccccc3)c(-c3ccco3)n2)c1`, for which the half-maximal inhibitory concentration (IC50) in test [1] is 2.05 µM. The inhibition at 10 µM in test [2] worked out at 100%; in test [4] it was 90.2%.
Turning to `COc1ccccc1C(=O)n1nc(-c2ccco2)c2ccccc21`, the IC50 in test [1] is greater than 10 µM; in test [3], greater than 10000 nM. Besides, the values for the inhibition at 10 µM in test [2] and in test [4] were -0.2% and 14.5%, respectively.
For `c1ccc(Cn2cc(-c3ccccc3)c(-c3ccco3)n2)cc1`, in test [1], the 50% inhibitory concentration (IC50) was greater than 10 µM. The inhibition at 10 µM in test [2] is 101%; in test [4], 94.2%.
`COc1ccc(-c2nn(CC3CCCCC3)cc2-c2ccccc2)cc1OC`: the IC50 in test [1] is greater than 10 µM; in test [3] it was greater than 10000 nM. Further, the values for the inhibition at 10 µM in test [2] and in test [4] were 19.1% and 43.9%, respectively.
For `c1ccc(Cn2nc(-c3ccco3)cc2-c2ccccc2)cc1`, the IC50 in test [1] was greater than 10 µM; in test [3] it was 75.1 nM. Moreover, the results for the inhibition at 10 µM in test [2] and in test [4] were 46% and 73%, respectively.
As to `c1coc(-c2nn(CC3CCCCC3)c3ccccc23)c1`, the concentration for half-maximal inhibition (IC50) came to 0.26 µM in test [1] and 180 nM in test [3]. In addition, the inhibition at 10 µM in test [2] came out at 73.9%; in test [4] it was 87.8%.
As for `O=C(c1ccccc1)n1nc(-c2ccco2)c2ccccc21`, in test [3], the IC50 amounted to 170 nM. Besides, the inhibition at 10 µM in test [4] amounted to 59.7%.
Regarding `O=Cc1ccc(-c2nn(C(=O)c3ccccc3F)c3ccccc23)o1`, the IC50 was greater than 10 µM in test [1] and greater than 10000 nM in test [3]. The inhibition at 10 µM in test [2] came out at 52.2%; in test [4] it was 31.8%.
Take `O=Cc1ccc(-c2nn(Cc3ccccc3)c3ccccc23)o1`: the concentration for half-maximal inhibition (IC50) in test [1] came to 3.68 µM; in test [3], 1000 nM. Besides, the inhibition at 10 µM in test [2] worked out at 89.7%; in test [4], 75.2%.
As for `CCCCCCCn1cc(-c2ccccc2)c(-c2cccs2)n1`, the 50% inhibitory concentration (IC50) in test [1] is greater than 10 µM; in test [3] it was greater than 10000 nM. Moreover, the inhibition at 10 µM in test [2] was 21%; in test [4] it was -5.72%.
Turning to `O=C(O)c1ccc(-c2nn(CC3CCCCC3)c3ccccc23)o1`, the concentration for half-maximal inhibition (IC50) in test [1] is greater than 10 µM; in test [3], 4930 nM. The figures for the inhibition at 10 µM in test [2] and in test [4] were 43.6% and 73.2%, respectively.
On the same counts, the results for `c1ccc(-c2cc(-c3ccco3)nn2CC2CCCCC2)cc1` are 2.42 µM, 200 nM, 109% and 99.3%.
In the case of `COc1ccc(-c2cc(-c3ccccc3)n(Cc3cccc(F)c3)n2)cc1OC`, the IC50 in test [1] is greater than 10 µM; in test [3], greater than 10000 nM. Also, the inhibition at 10 µM in test [2] stood at 38.5%; in test [4], 44.5%.
On to `c1ccc(Cn2cc(-c3ccccc3)c(-c3ccccc3)n2)cc1`, for which the half-inhibitory concentration (IC50) is greater than 10 µM in test [1] and 201000 nM in test [3]. In addition, the inhibition at 10 µM came out at 6.79% in test [2] and 61.6% in test [4].
In the case of `c1ccc(Cn2nc(-c3ccccc3)cc2-c2ccccc2)cc1`, the half-maximal inhibitory concentration (IC50) in test [1] was greater than 10 µM; in test [3], 2830 nM. The values for the inhibition at 10 µM in test [2] and in test [4] were 36.8% and 63.6%, respectively.
For the molecule `COc1cccc(Cn2cc(-c3ccccc3)c(-c3ccccc3)n2)c1`, the IC50 in test [1] was greater than 10 µM; in test [3], 164000 nM. For the same molecule, the inhibition at 10 µM was 25% in test [2] and 68.6% in test [4].
As for `Fc1ccccc1Cn1nc(-c2ccccc2)cc1-c1ccccc1`, the IC50 in test [1] was greater than 10 µM; in test [3], 4690 nM. Also, the inhibition at 10 µM in test [2] is 35%; in test [4], 61.8%.
